Ki data for 1 molecule are collected here from BindingDB's records for doi:10.7270/Q2930WC4 (n/a, 1995).

The target in this experiment is Alpha-2 adrenergic receptor (Rattus norvegicus). As to the kind of experiment: Compound was tested for its binding affinity against Alpha-2 adrenergic receptor.

Structures are written as SMILES.

As usually defined, the Ki is the dissociation constant of the complex between target and ligand, obtained from inhibition or displacement. Higher therefore signals lower affinity. On to `CCCN(CCCCCCN1CCC[C@@H]1Cc1ccc(O)c(O)c1)CCc1ccc(O)c(O)c1`, for which the affinity, expressed as Ki, was 302 nM.
